Where “and” joins values, the source holds several entries; their conditions need not be identical. Equal entries are not always repeated. Where two headings read alike, the source gives them in different places.
Experiments:
[1] = tested on: ovariectomized adult rats; assay: Vaginal cornification bioassay in ovariectomized rats; type: in vivo, rat
From the text: Uterine weight increase in the rat is more commonly used as a measure of estrogenicity. […] In the early 1920s it was discovered that follicular fluid from the pig ovary contained a factor(s) that caused cornification/keratinization of the vaginal epithelium in the rat (Allen and Doisy, 1923, JAMA, 81,819-821; Allen and Doisy, 1924, Am. J. Physiol., 69, 577-588). The so-called vaginal cornification response in rats subsequently provided a bioassay for testing estrogenicity. Vaginal epithelial cornification/keratinization in ovariectomized rats can be produced only by compounds considered to be true estrogens (Jones et al, 1973, Fert. Steril. 24, 284-291). […] Adult intact female CD rats were ovariectomized to induce estrogen deficiency. […] Castrate vaginal smears are indicative that complete ovanectomy was achieved. Treatment commenced following completion of the 7 days of smearing (day 0=first day of dosing). Animals were dosed, once daily for 7 consecutive days. Daily vaginal lavages continued to be obtained for 7 days after dosing was initiated in order to detect vaginal cornification, as an indication of an estrogenic response. A drop of vaginal washings was placed on a glass slide and examined by light microscopy to detect the presence or absence of cornified epithelial cells. Vaginal lavages were obtained prior to dosing on days 0-6 and prior to necropsy on day 7. The vaginal cornification bioassay was performed in order to determine the estrogenic profile of E4 when given subcutaneously (sc) to ovariectomized adult rats. E2 was used as a positive control. […] The vaginal cornification bioassay was performed in order to determine the estrogenic profile of E4 when given orally (po) to ovariectomized adult rats. EE was used as a positive control. […] A vaginal estrogenic response occurred in all rats (8/8) given 50 μg/kg/day EE po by day 7 (Table 2).

human ERβ = biological target: T1, human ERβ (Homo sapiens, UniProt Q92731); assay: Competitive steroid binding assay, ERβ; conditions: read-out: Percent inhibition of specific binding in ERβ steroid binding assay; for inhibition at 0.03 µM: E4 0.03 μM; for inhibition at 0.1 µM: E4 0.1 μM; for inhibition at 0.3 µM: E4 0.3 μM; for inhibition at 1 µM: E4 1 μM
T1 construct: made in house; host or cells: Sf9 insect cells
T1 sequence (Q92731 whole entry): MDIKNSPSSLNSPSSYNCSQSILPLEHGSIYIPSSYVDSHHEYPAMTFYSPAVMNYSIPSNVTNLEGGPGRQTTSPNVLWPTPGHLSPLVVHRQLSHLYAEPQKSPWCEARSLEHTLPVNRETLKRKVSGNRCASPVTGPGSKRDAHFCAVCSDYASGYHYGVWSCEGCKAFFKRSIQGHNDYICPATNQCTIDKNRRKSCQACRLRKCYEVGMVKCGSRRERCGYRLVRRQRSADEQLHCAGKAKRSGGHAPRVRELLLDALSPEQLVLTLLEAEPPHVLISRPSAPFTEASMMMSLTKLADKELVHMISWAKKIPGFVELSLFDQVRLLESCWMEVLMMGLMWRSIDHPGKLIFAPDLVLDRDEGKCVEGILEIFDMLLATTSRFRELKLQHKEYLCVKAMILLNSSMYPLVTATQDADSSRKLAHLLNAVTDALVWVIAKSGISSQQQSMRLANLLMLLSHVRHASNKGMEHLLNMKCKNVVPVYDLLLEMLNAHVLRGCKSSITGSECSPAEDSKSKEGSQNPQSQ

uterus = conditions: continuous administration from a subcutaneous depot; cited from earlier work
[2] = biological target: T2, rat uterine nuclear estrogen receptor (Rattus norvegicus, UniProt P06211); conditions: cited from earlier work
T2 construct: rat uterine cytosol estrogen receptor; host or cells: rat uterus (cytosol / nuclear fraction)
T2 sequence (P06211 1-600): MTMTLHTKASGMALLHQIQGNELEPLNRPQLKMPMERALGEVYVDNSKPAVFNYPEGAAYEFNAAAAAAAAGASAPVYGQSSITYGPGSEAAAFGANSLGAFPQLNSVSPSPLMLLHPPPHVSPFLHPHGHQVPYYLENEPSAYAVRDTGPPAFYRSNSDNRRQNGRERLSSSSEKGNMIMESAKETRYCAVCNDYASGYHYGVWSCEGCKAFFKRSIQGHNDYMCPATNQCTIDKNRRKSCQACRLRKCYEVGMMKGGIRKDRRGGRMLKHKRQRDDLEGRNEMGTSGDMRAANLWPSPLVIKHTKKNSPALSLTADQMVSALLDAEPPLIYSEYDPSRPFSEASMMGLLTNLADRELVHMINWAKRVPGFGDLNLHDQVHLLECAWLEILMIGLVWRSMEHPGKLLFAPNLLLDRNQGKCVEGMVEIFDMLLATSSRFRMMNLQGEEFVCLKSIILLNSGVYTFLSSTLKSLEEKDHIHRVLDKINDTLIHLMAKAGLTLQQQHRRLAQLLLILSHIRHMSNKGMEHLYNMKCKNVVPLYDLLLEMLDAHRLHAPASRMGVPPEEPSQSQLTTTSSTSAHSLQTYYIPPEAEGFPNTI

Compound: C[C@]12CC[C@@H]3c4ccc(O)cc4CC[C@H]3[C@@H]1[C@@H](O)[C@@H](O)[C@@H]2O [E4, 1,3,5(10)-estratrien-3,15α,16α,17β-tetrol]
- Number of Rats Exhibiting Estrogenic Response/Number of Rats Treated ([1]; po, 0.1 mg/kg/day, Day 0): 0/8
- Number of Rats Exhibiting Estrogenic Response/Number of Rats Treated ([1]; po, 0.1 mg/kg/day, Day 1): 0/8
- Number of Rats Exhibiting Estrogenic Response/Number of Rats Treated ([1]; po, 0.1 mg/kg/day, Day 2): 1/8
- Number of Rats Exhibiting Estrogenic Response/Number of Rats Treated ([1]; po, 0.1 mg/kg/day, Day 3): 7/8
- Number of Rats Exhibiting Estrogenic Response/Number of Rats Treated ([1]; po, 0.1 mg/kg/day, Day 4): 8/8
- Number of Rats Exhibiting Estrogenic Response/Number of Rats Treated ([1]; po, 0.1 mg/kg/day, Day 5): 8/8
- Number of Rats Exhibiting Estrogenic Response/Number of Rats Treated ([1]; po, 0.1 mg/kg/day, Day 6): 8/8
- Number of Rats Exhibiting Estrogenic Response/Number of Rats Treated ([1]; po, 0.1 mg/kg/day, Day 7): 8/8
- Number of Rats Exhibiting Estrogenic Response/Number of Rats Treated ([1]; po, 0.3 mg/kg/day, Day 0): 0/8
- Number of Rats Exhibiting Estrogenic Response/Number of Rats Treated ([1]; po, 0.3 mg/kg/day, Day 1): 0/8
- Number of Rats Exhibiting Estrogenic Response/Number of Rats Treated ([1]; po, 0.3 mg/kg/day, Day 2): 1/8
- Number of Rats Exhibiting Estrogenic Response/Number of Rats Treated ([1]; po, 0.3 mg/kg/day, Day 3): 7/8
- Number of Rats Exhibiting Estrogenic Response/Number of Rats Treated ([1]; po, 0.3 mg/kg/day, Day 4): 8/8
- Number of Rats Exhibiting Estrogenic Response/Number of Rats Treated ([1]; po, 0.3 mg/kg/day, Day 5): 8/8
- Number of Rats Exhibiting Estrogenic Response/Number of Rats Treated ([1]; po, 0.3 mg/kg/day, Day 6): 8/8
- Number of Rats Exhibiting Estrogenic Response/Number of Rats Treated ([1]; po, 0.3 mg/kg/day, Day 7): 8/8
- Number of Rats Exhibiting Estrogenic Response/Number of Rats Treated ([1]; po, 1.0 mg/kg/day, Day 0): 0/8
- Number of Rats Exhibiting Estrogenic Response/Number of Rats Treated ([1]; po, 1.0 mg/kg/day, Day 1): 0/8
- Number of Rats Exhibiting Estrogenic Response/Number of Rats Treated ([1]; po, 1.0 mg/kg/day, Day 2): 4/8
- Number of Rats Exhibiting Estrogenic Response/Number of Rats Treated ([1]; po, 1.0 mg/kg/day, Day 3): 8/8
- Number of Rats Exhibiting Estrogenic Response/Number of Rats Treated ([1]; po, 1.0 mg/kg/day, Day 4): 8/8
- Number of Rats Exhibiting Estrogenic Response/Number of Rats Treated ([1]; po, 1.0 mg/kg/day, Day 5): 8/8
- Number of Rats Exhibiting Estrogenic Response/Number of Rats Treated ([1]; po, 1.0 mg/kg/day, Day 6): 8/8
- Number of Rats Exhibiting Estrogenic Response/Number of Rats Treated ([1]; po, 1.0 mg/kg/day, Day 7): 8/8
- Number of Rats Exhibiting Estrogenic Response/Number of Rats Treated ([1]; po, 3.0 mg/kg/day, Day 0): 0/8
- Number of Rats Exhibiting Estrogenic Response/Number of Rats Treated ([1]; po, 3.0 mg/kg/day, Day 1): 0/8
- Number of Rats Exhibiting Estrogenic Response/Number of Rats Treated ([1]; po, 3.0 mg/kg/day, Day 2): 6/8
- Number of Rats Exhibiting Estrogenic Response/Number of Rats Treated ([1]; po, 3.0 mg/kg/day, Day 3): 8/8
- Number of Rats Exhibiting Estrogenic Response/Number of Rats Treated ([1]; po, 3.0 mg/kg/day, Day 4): 8/8
- Number of Rats Exhibiting Estrogenic Response/Number of Rats Treated ([1]; po, 3.0 mg/kg/day, Day 5): 8/8
- Number of Rats Exhibiting Estrogenic Response/Number of Rats Treated ([1]; po, 3.0 mg/kg/day, Day 6): 8/8
- Number of Rats Exhibiting Estrogenic Response/Number of Rats Treated ([1]; po, 3.0 mg/kg/day, Day 7): 8/8
- onset of vaginal cornification (animals responding at days 1-3), po versus sc ([1]; relatively low doses, e.g. 0.1 mg/kg/day): faster in po-treated
- onset of vaginal epithelial cornification ([1]; sc 0.1, 0.3, 1.0 and 3.0 mg/kg/day): dose-dependent
- Number of Rats Exhibiting Estrogenic Response/Number of Rats Treated ([1]; sc, 0.1 mg/kg/day, Day 0): 0/8
- Number of Rats Exhibiting Estrogenic Response/Number of Rats Treated ([1]; sc, 0.1 mg/kg/day, Day 1): 0/8
- Number of Rats Exhibiting Estrogenic Response/Number of Rats Treated ([1]; sc, 0.1 mg/kg/day, Day 2): 0/8
- Number of Rats Exhibiting Estrogenic Response/Number of Rats Treated ([1]; sc, 0.1 mg/kg/day, Day 3): 1/8
- Number of Rats Exhibiting Estrogenic Response/Number of Rats Treated ([1]; sc, 0.1 mg/kg/day, Day 4): 1/8
- Number of Rats Exhibiting Estrogenic Response/Number of Rats Treated ([1]; sc, 0.1 mg/kg/day, Day 5): 4/8
- Number of Rats Exhibiting Estrogenic Response/Number of Rats Treated ([1]; sc, 0.1 mg/kg/day, Day 6): 3/8
- Number of Rats Exhibiting Estrogenic Response/Number of Rats Treated ([1]; sc, 0.1 mg/kg/day, Day 7): 4/8
- Number of Rats Exhibiting Estrogenic Response/Number of Rats Treated ([1]; sc, 0.3 mg/kg/day, Day 0): 0/8
- Number of Rats Exhibiting Estrogenic Response/Number of Rats Treated ([1]; sc, 0.3 mg/kg/day, Day 1): 0/8
- Number of Rats Exhibiting Estrogenic Response/Number of Rats Treated ([1]; sc, 0.3 mg/kg/day, Day 2): 1/8
- Number of Rats Exhibiting Estrogenic Response/Number of Rats Treated ([1]; sc, 0.3 mg/kg/day, Day 3): 5/8
- Number of Rats Exhibiting Estrogenic Response/Number of Rats Treated ([1]; sc, 0.3 mg/kg/day, Day 4): 7/8
- Number of Rats Exhibiting Estrogenic Response/Number of Rats Treated ([1]; sc, 0.3 mg/kg/day, Day 5): 6/8
- Number of Rats Exhibiting Estrogenic Response/Number of Rats Treated ([1]; sc, 0.3 mg/kg/day, Day 6): 7/8
- Number of Rats Exhibiting Estrogenic Response/Number of Rats Treated ([1]; sc, 0.3 mg/kg/day, Day 7): 7/8
- Number of Rats Exhibiting Estrogenic Response/Number of Rats Treated ([1]; sc, 1.0 mg/kg/day, Day 0): 0/8
- Number of Rats Exhibiting Estrogenic Response/Number of Rats Treated ([1]; sc, 1.0 mg/kg/day, Day 1): 0/8
- Number of Rats Exhibiting Estrogenic Response/Number of Rats Treated ([1]; sc, 1.0 mg/kg/day, Day 2): 1/8
- Number of Rats Exhibiting Estrogenic Response/Number of Rats Treated ([1]; sc, 1.0 mg/kg/day, Day 3): 6/8
- Number of Rats Exhibiting Estrogenic Response/Number of Rats Treated ([1]; sc, 1.0 mg/kg/day, Day 4): 8/8
- Number of Rats Exhibiting Estrogenic Response/Number of Rats Treated ([1]; sc, 1.0 mg/kg/day, Day 5): 7/8
- Number of Rats Exhibiting Estrogenic Response/Number of Rats Treated ([1]; sc, 1.0 mg/kg/day, Day 6): 8/8
- Number of Rats Exhibiting Estrogenic Response/Number of Rats Treated ([1]; sc, 1.0 mg/kg/day, Day 7, 1 mg/kg/day): all rats and 8/8
- Number of Rats Exhibiting Estrogenic Response/Number of Rats Treated ([1]; sc, 3.0 mg/kg/day, Day 0): 0/8
- Number of Rats Exhibiting Estrogenic Response/Number of Rats Treated ([1]; sc, 3.0 mg/kg/day, Day 1): 0/8
- Number of Rats Exhibiting Estrogenic Response/Number of Rats Treated ([1]; sc, 3.0 mg/kg/day, Day 2): 3/8
- Number of Rats Exhibiting Estrogenic Response/Number of Rats Treated ([1]; sc, 3.0 mg/kg/day, Day 3): 8/8
- Number of Rats Exhibiting Estrogenic Response/Number of Rats Treated ([1]; sc, 3.0 mg/kg/day, Day 4): 8/8
- Number of Rats Exhibiting Estrogenic Response/Number of Rats Treated ([1]; sc, 3.0 mg/kg/day, Day 5): 8/8
- Number of Rats Exhibiting Estrogenic Response/Number of Rats Treated ([1]; sc, 3.0 mg/kg/day, Day 6): 8/8
- Number of Rats Exhibiting Estrogenic Response/Number of Rats Treated ([1]; sc, 3.0 mg/kg/day, Day 7, 3 mg/kg/day): all rats and 8/8
- inhibition at 0.03 µM (human ERβ; Test 1): 19%
- inhibition at 0.03 µM (human ERβ; Test 2): 25%
- inhibition at 0.03 µM (human ERβ; Test 3): 30%
- inhibition at 0.1 µM (human ERβ; Test 1): 56%
- inhibition at 0.1 µM (human ERβ; Test 2): 54%
- inhibition at 0.1 µM (human ERβ; Test 3): 50%
- inhibition at 0.3 µM (human ERβ; Test 1): 74%
- inhibition at 0.3 µM (human ERβ; Test 2): 74%
- inhibition at 0.3 µM (human ERβ; Test 3): 77%
- inhibition at 1 µM (human ERβ; Test 1): 87%
- inhibition at 1 µM (human ERβ; Test 2): 90%
- inhibition at 1 µM (human ERβ; Test 3): 95%
- uterotrophic activity (uterus): very weak uterotrophic activity
- relative binding affinity, of 17β-estradiol (100%) [2]: 0.3%

Source: patent publication US7723320B2, “Use of estrogen compounds to increase libido in women” (Pantarhei Bioscience B.V., priority 2001, dated 2010)
